Experimental data from PubChem BioAssay (NCI).
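Five concentrations, 48 hours, 96-well plates. GI50 is the concentration that inhibits growth by half. Definition used: TGI = concentration required for complete inhibition of growth.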

What was measured:
Experiment in all cases: NCI-60 cell line screen, 48 h
[1] = test system: UACC-62 melanoma
[2] = test system: HT29 colon
[3] = test system: HCC-2998 colon
[4] = test system: NCI-H23 lung
[5] = test system: SK-OV-3 ovarian
[6] = test system: U251 CNS
[7] = test system: IGROV1 ovarian
[8] = test system: SK-MEL-28 melanoma
[9] = test system: SW-620 colon
[10] = test system: RPMI-8226 leukemia
[11] = test system: A498 renal
[12] = test system: SF-268 CNS
[13] = test system: CAKI-1 renal
[14] = test system: A549 NSCLC
[15] = test system: OVCAR-5 ovarian
[16] = test system: EKVX NSCLC
[17] = test system: SF-539 CNS
[18] = test system: NCI/ADR-RES ovarian
[19] = test system: MDA-MB-435
[20] = test system: MOLT-4 leukemia
[21] = test system: ACHN renal
[22] = test system: LOX IMVI melanoma
[23] = test system: SF-295 CNS
[24] = test system: M14 melanoma
[25] = test system: HS 578T breast
[26] = test system: SK-MEL-2 melanoma
[27] = test system: NCI-H226 lung
[28] = test system: OVCAR-8 ovarian
[29] = test system: K-562 leukemia
[30] = test system: HOP-92 NSCLC
[31] = test system: RXF 393 renal
[32] = test system: OVCAR-3 ovarian
[33] = test system: T-47D breast
[34] = test system: SK-MEL-5 melanoma
[35] = test system: COLO 205 colon
[36] = test system: MDA-MB-231 breast
[37] = test system: DU-145 prostate
[38] = test system: 786-0 renal
[39] = test system: UACC-257 melanoma
[40] = test system: TK-10 renal
[41] = test system: SNB-19 CNS
[42] = test system: MCF7 breast
[43] = test system: UO-31 renal
[44] = test system: BT-549 breast
[45] = test system: NCI-H522 lung
[46] = test system: CCRF-CEM leukemia
[47] = test system: HCT-15 colon
[48] = test system: SNB-75 CNS
[49] = test system: OVCAR-4 ovarian
[50] = test system: KM12 colon
[51] = test system: SN12C renal
[52] = test system: HCT-116 colon
[53] = test system: HOP-62 NSCLC
[54] = test system: PC-3 prostate
[55] = test system: NCI-H460 lung
[56] = test system: HL-60(TB) leukemia
[57] = test system: MALME-3M melanoma

SMILES: COC(=O)CCCC(=O)C1=Nc2ccccc2CN(c2ccc(Cl)cc2)N1
- TGI [1]: > 100 µM
- TGI [2]: > 100 µM
- TGI [3]: > 100 µM
- TGI [4]: > 100 µM
- TGI [5]: > 100 µM
- TGI [6]: > 100 µM
- TGI [7]: > 100 µM
- TGI [8]: > 100 µM
- TGI [9]: > 100 µM
- TGI [10]: > 100 µM
- TGI [11]: > 100 µM
- TGI [12]: > 100 µM
- TGI [13]: > 100 µM
- TGI [14]: > 100 µM
- TGI [15]: > 100 µM
- TGI [16]: > 100 µM
- TGI [17]: > 100 µM
- TGI [18]: > 100 µM
- TGI [19]: > 100 µM
- TGI [20]: > 100 µM
- TGI [21]: > 100 µM
- TGI [22]: > 100 µM
- TGI [23]: > 100 µM
- TGI [24]: > 100 µM
- TGI [25]: > 100 µM
- TGI [26]: > 100 µM
- TGI [27]: > 100 µM
- TGI [28]: > 100 µM
- TGI [29]: > 100 µM
- TGI [30]: > 100 µM
- TGI [31]: > 100 µM
- TGI [32]: > 100 µM
- TGI [33]: 49.5 µM
- TGI [34]: > 100 µM
- TGI [35]: > 100 µM
- TGI [36]: > 100 µM
- TGI [37]: > 100 µM
- TGI [38]: > 100 µM
- TGI [39]: > 100 µM
- TGI [40]: > 100 µM
- TGI [41]: > 100 µM
- TGI [42]: > 100 µM
- TGI [43]: > 100 µM
- TGI [44]: > 100 µM
- TGI [45]: > 100 µM
- TGI [46]: > 100 µM
- TGI [47]: > 100 µM
- TGI [48]: > 100 µM
- TGI [49]: 87.7 µM
- TGI [50]: > 100 µM
- TGI [51]: > 100 µM
- TGI [52]: > 100 µM
- TGI [53]: > 100 µM
- TGI [54]: > 100 µM

SMILES: NC(N)=Nc1ccc(CC(N)C(=O)NCC(=O)C(CC(=O)O)c2ncc(NC(=O)C(F)(F)F)o2)cc1 (stereo not given)
- TGI [1]: > 25 µM
- TGI [2]: > 25 µM
- TGI [3]: > 25 µM
- TGI [4]: > 25 µM
- TGI [5]: > 25 µM
- TGI [55]: > 25 µM
- TGI [6]: > 25 µM
- TGI [7]: > 25 µM
- TGI [8]: > 25 µM
- TGI [56]: > 25 µM
- TGI [9]: > 25 µM
- TGI [10]: > 25 µM
- TGI [11]: > 25 µM
- TGI [12]: > 25 µM
- TGI [13]: > 25 µM
- TGI [14]: > 25 µM
- TGI [15]: > 25 µM
- TGI [16]: > 25 µM
- TGI [17]: > 25 µM
- TGI [18]: > 25 µM
- TGI [19]: > 25 µM
- TGI [21]: > 25 µM
- TGI [22]: > 25 µM
- TGI [23]: > 25 µM
- TGI [24]: > 25 µM
- TGI [25]: > 25 µM
- TGI [26]: > 25 µM
- TGI [27]: > 25 µM
- TGI [57]: > 25 µM
- TGI [28]: > 25 µM
- TGI [31]: > 25 µM
- TGI [32]: > 25 µM
- TGI [33]: > 25 µM
- TGI [34]: > 25 µM
- TGI [35]: > 25 µM
- TGI [36]: > 25 µM
- TGI [37]: > 25 µM
- TGI [38]: > 25 µM
- TGI [39]: > 25 µM
- TGI [40]: > 25 µM
- TGI [42]: > 25 µM
- TGI [43]: > 25 µM
- TGI [44]: > 25 µM
- TGI [45]: > 25 µM
- TGI [46]: > 25 µM
- TGI [47]: > 25 µM
- TGI [48]: > 25 µM
- TGI [49]: > 25 µM
- TGI [50]: > 25 µM
- TGI [51]: > 25 µM
- TGI [52]: > 25 µM
- TGI [53]: > 25 µM
- TGI [54]: > 25 µM

SMILES: CCCOc1ccc2sc(NC(=O)c3cc([N+](=O)[O-])cc([N+](=O)[O-])c3)nc2c1
- TGI [1]: > 100 µM
- TGI [2]: > 100 µM
- TGI [4]: 82.3 µM
- TGI [5]: > 100 µM
- TGI [55]: > 100 µM
- TGI [6]: > 100 µM
- TGI [7]: 35.7 µM
- TGI [8]: > 100 µM
- TGI [56]: > 100 µM
- TGI [9]: > 100 µM
- TGI [10]: > 100 µM
- TGI [11]: 76.9 µM
- TGI [12]: > 100 µM
- TGI [13]: > 100 µM
- TGI [14]: > 100 µM
- TGI [15]: > 100 µM
- TGI [16]: > 100 µM
- TGI [17]: > 100 µM
- TGI [18]: 61.5 µM
- TGI [19]: > 100 µM
- TGI [20]: > 100 µM
- TGI [21]: > 100 µM
- TGI [22]: 68.3 µM
- TGI [23]: > 100 µM
- TGI [24]: > 100 µM
- TGI [25]: 39.4 µM
- TGI [26]: > 100 µM
- TGI [27]: > 100 µM
- TGI [57]: 79.3 µM
- TGI [28]: > 100 µM
- TGI [29]: > 100 µM
- TGI [30]: 49.6 µM
- TGI [31]: > 100 µM
- TGI [32]: 68.3 µM
- TGI [33]: > 100 µM
- TGI [34]: 48.8 µM
- TGI [35]: > 100 µM
- TGI [36]: > 100 µM
- TGI [37]: > 100 µM
- TGI [38]: > 100 µM
- TGI [40]: > 100 µM
- TGI [41]: > 100 µM
- TGI [42]: > 100 µM
- TGI [43]: 57.7 µM
- TGI [44]: > 100 µM
- TGI [46]: > 100 µM
- TGI [47]: > 100 µM
- TGI [48]: 83.1 µM
- TGI [49]: 58.8 µM
- TGI [50]: > 100 µM
- TGI [51]: > 100 µM
- TGI [52]: 89.7 µM
- TGI [53]: > 100 µM
- TGI [54]: > 100 µM

SMILES: Cn1c([N+](=O)[O-])cnc1/C=C1\Oc2ccc(Br)cc2C1=O
- GI50 [1]: 993 nM
- TGI [1]: 2.68 µM
- GI50 [2]: 231 nM
- TGI [2]: 0.622 µM
- GI50 [3]: 995 nM
- TGI [3]: 3.62 µM
- GI50 [4]: 432 nM
- TGI [4]: 2.35 µM
- GI50 [5]: 1450 nM
- TGI [5]: 6.08 µM
- GI50 [55]: 253 nM
- TGI [55]: 0.654 µM
- GI50 [6]: 466 nM
- TGI [6]: 2.54 µM
- GI50 [7]: 469 nM
- GI50 [8]: 532 nM
- TGI [8]: 2.87 µM
- GI50 [56]: 334 nM
- TGI [56]: 1.57 µM
- GI50 [9]: 157 nM
- TGI [9]: 0.537 µM
- GI50 [10]: 352 nM
- TGI [10]: 2.87 µM
- GI50 [11]: 1720 nM
- TGI [11]: 4.67 µM
- GI50 [12]: 299 nM
- TGI [12]: 0.933 µM
- GI50 [13]: 277 nM
- TGI [13]: 0.95 µM
- GI50 [14]: 927 nM
- TGI [14]: 5.2 µM
- GI50 [15]: 1480 nM
- TGI [15]: 5.64 µM
- GI50 [17]: 922 nM
- TGI [17]: 3.28 µM
- GI50 [18]: 609 nM
- TGI [18]: 74.4 µM
- GI50 [19]: 253 nM
- TGI [19]: 0.731 µM
- GI50 [20]: 316 nM
- TGI [20]: 7.3 µM
- GI50 [21]: 212 nM
- TGI [21]: 0.585 µM
- GI50 [22]: 209 nM
- TGI [22]: 0.543 µM
- GI50 [23]: 1700 nM
- TGI [23]: 7.85 µM
- GI50 [24]: 445 nM
- TGI [24]: 2.1 µM
- GI50 [25]: 890 nM
- TGI [25]: > 23.4 µM
- GI50 [26]: 445 nM
- TGI [26]: 1.96 µM
- GI50 [27]: 1380 nM
- TGI [27]: 4.89 µM
- GI50 [57]: 683 nM
- TGI [57]: 2.21 µM
- GI50 [28]: 266 nM
- GI50 [29]: 400 nM
- TGI [29]: 3.28 µM
- GI50 [30]: 369 nM
- TGI [30]: 2.58 µM
- GI50 [31]: 416 nM
- TGI [31]: 1.94 µM
- GI50 [32]: 276 nM
- TGI [32]: 0.69 µM
- GI50 [33]: 5.41 µM
- TGI [33]: > 75.9 µM
- GI50 [34]: 213 nM
- TGI [34]: 0.586 µM
- GI50 [35]: 925 nM
- TGI [35]: 3.17 µM
- GI50 [36]: 374 nM
- TGI [36]: 4.81 µM
- GI50 [37]: 338 nM
- TGI [37]: 0.933 µM
- GI50 [38]: 557 nM
- TGI [38]: 2.07 µM
- GI50 [39]: 854 nM
- TGI [39]: 4.07 µM
- GI50 [40]: 671 nM
- TGI [40]: 2.64 µM
- GI50 [41]: 1190 nM
- TGI [41]: 6.17 µM
- GI50 [42]: 330 nM
- TGI [42]: 7.97 µM
- GI50 [43]: 240 nM
- TGI [43]: 0.765 µM
- GI50 [44]: 715 nM
- TGI [44]: 4.76 µM
- GI50 [45]: 357 nM
- TGI [45]: 1.04 µM
- GI50 [46]: 200 nM
- TGI [46]: 0.706 µM
- GI50 [47]: 193 nM
- TGI [47]: 0.657 µM
- GI50 [48]: 1040 nM
- TGI [48]: 4.45 µM
- GI50 [49]: 1580 nM
- TGI [49]: > 20.2 µM
- GI50 [50]: 312 nM
- TGI [50]: 0.957 µM
- GI50 [51]: 421 nM
- TGI [51]: 4.16 µM
- GI50 [52]: 179 nM
- TGI [52]: 0.652 µM
- GI50 [53]: 1140 nM
- TGI [53]: 3.95 µM
- GI50 [54]: 471 nM
